Measured values reported in patent US9771560B2, “High-throughput image-based chemical screening in zebrafish blastomere cell culture” (CHILDREN'S MEDICAL CENTER CORPORATION, priority 2012, dated 2017).
Entries after “also recorded” stand apart in the source; their conditions may differ. Where a name gives a salt, the structure may show the parent alone.

Tests used:
zebrafish embryos = assay: Whole-mount in situ hybridization with myoD riboprobe in chemical-treated zebrafish embryos; format: in vivo; set-up: key to myoD expression: Level 1: decreased myoD staining at different levels, which are indicated in FIG. 9A; Level 2: decreased myoD staining at different levels, which are indicated in FIG. 9A; Level 3: decreased myoD staining at different levels, which are indicated in FIG. 9A; Level 4: decreased myoD staining at different levels, which are indicated in FIG. 9A; conditions: for myoD expression: embryos treated at the sphere stage, assayed at the 6-somite stage, CHB library chemicals diluted 300-fold, compared with DMSO; for perturbation of muscle development in vivo (myoD riboprobe): treated at the sphere stage, 6-somite stage, diluted 300-fold
Method: FIGS. 9A-9C show the chemical genetics screens to identify modifiers of skeletal muscle development (related to FIG. 2) FIG. 9A, Embryos were treated with hits at the sphere stage. Once the control embryos reached the 6-somite stage, they were collected for whole-mount in situ hybridization with the myoD riboprobe. […] Flat mounted embryos stained with the myoD riboprobe at the 6-somite stage are shown with anterior to the left. Embryos were treated with (±)-6-Chloro-PB hydrobromide, LY-294002, 1-ACYL-PAF, or ATRA. All chemicals were from the CHB library and were diluted 300-fold. The level of myoD reduction was determined by comparing the intensity of myoD expression in these embryos with that in control embryos treated with DMSO. FIG. 9B, myf5-GFP; mylz2-mCherry embryos were collected at the oblong stage and disassociated. The resulting blastomere cells were aliquoted into a 96-well plate with pre-added chemicals. The culture medium contained 10 ng/ml bFGF to promote muscle development. Cells were treated with 50 μM tyrphostin AG 879, 50 μM tyrphostin AG 808, 50 μM tyrphostin AG 555, 50 μM PD 98059, 10 μM U0126, 10 μM LY-294002, 10 μM wortmannin, or 20 μM rapamycin. Cells were imaged after 2 days by the Celigo cytometer for GFP, mCherry, and bright-field signals. FIG. 9C, 1-cell-stage myf5-GFP; mylz2-mCherry embryos were injected with 250 pg fgf8-MO and 250 pg fgf24-MO and rescued by adding […] at the dome stage.
Whole mount in situ hybridizations were performed as previously described (Belting et al., 2001).

[1] = tested on: zebrafish blastomere cells; assay: Culture of disassociated myf5-GFP; mylz2-mCherry blastomere cells in zESC medium (validation and pathway inhibitor tests); format: cell-based
Method: FIGS. 1A-1E show the chemical genetic screen to identify modifiers of skeletal muscle development. […] The yolk of the double transgenic embryo is mCherry positive, presumptively due to the maternal deposit of mCherry protein. mylz2-mCherry expression is not observed until 32 hpf. Its expression is first detected in anterior somites and then progressively spreads to posterior somites. […] Images were taken 48 hours after plating. Scale bars represent 250 μM. […] Blastomere cells from myf5-GFP; mylz2-mCherry embryos were cultured with or without bFGF and harvested at 24 hours. Results of bFGF treated cells are normalized to the expression of untreated cells. Error bars represent standard deviation (SD) from the triplicate quantitative RT-PCR reaction. All expressions are normalized to β-actin. […] Blastomere cells from myf5-GFP; mylz2-mCherry embryos were cultured with bFGF and harvested at 24 hours. Different populations were isolated by FACS. Results are normalized to the expression of cells of the double negative population. Error bars represent standard deviation (SD) from the triplicate quantitative RT-PCR reaction. All expressions are normalized to β-actin. […] 0.1% DMSO or 100 nM ATRA was added immediately. Images were taken 48 hours after plating. Scale bars represent 250 μM.
FIGS. 9A-9C show the chemical genetics screens to identify modifiers of skeletal muscle development (related to FIG. 2) FIG. 9A, Embryos were treated with hits at the sphere stage. Once the control embryos reached the 6-somite stage, they were collected for whole-mount in situ hybridization with the myoD riboprobe. […] Flat mounted embryos stained with the myoD riboprobe at the 6-somite stage are shown with anterior to the left. Embryos were treated with (±)-6-Chloro-PB hydrobromide, LY-294002, 1-ACYL-PAF, or ATRA. All chemicals were from the CHB library and were diluted 300-fold. The level of myoD reduction was determined by comparing the intensity of myoD expression in these embryos with that in control embryos treated with DMSO. […]

[2] = tested on: human iPSCs (00409, 05400, and BJ)
Method: Cells were differentiated by generating EBs in suspension culture 7 days and then transferred to matrigel-coated plates for additional 29 days. During the suspension culture the cells received the differentiation medium STEMDiff Apel medium ([sequence] technologies) supplied with 10 ng/ml bFGF (Invitrogen), 0.5 μM BIO (Santa Cruz Biotechnologies) and 20 μM forskolin (Santa Cruz Biotechnologies). Two-three days after plating EBs, the medium was switched to DMEM complemented with 2% horse serum for the remaining differentiation.
Embryoid bodies (EBs) from BJ, 00409 or 05400 iPSCs were exposed for 7 days to a serum-free differentiation medium containing bFGF (10 ng/ml), BIO (0.5 μM) and forskolin (20 μM) (medium added at day 1, 3 and 5). […] After 7 days, we measured the expression of a panel of markers specific for ectoderm, endoderm or mesoderm to quantify differentiation outcomes.

[3] = tested on: zebrafish blastomere cells; assay: High-throughput image-based chemical screen in myf5-GFP; mylz2-mCherry zebrafish blastomere cell culture with bFGF; conditions: medium supplemented with bFGF, 384-well, Celigo cytometer
Text: (§1) FIGS. 2A-2C show the chemical genetic screens to identify modifiers of skeletal muscle development. FIG. 2A is a schematic of a high-throughput image-based chemical screening assay. Approximately 800 myf5-GFP; mylz2-mCherry double transgenic embryos were collected and disassociated at the oblong stage. The resulting blastomere cells were aliquoted into four 384-well plates with pre-added chemicals. We performed duplicates for each chemical to mitigate false positives. After 2 days, the 384-well plates were imaged using a Celigo cytometer. For each well, an image for each signal channel was captured. GFP and mCherry signals were determined by the Celigo cytometer's built-in software and confirmed by eye. […] Most of the hits could be grouped into three categories. […] The phenotype is presumptively due to inhibition of differentiation of muscle progenitors into mature muscle. […] This phenotype is presumptively due to the blocking of muscle progenitor commitment. […] Scale bars represent 250 μM. […] Scale bars represent 250 μM.
Disassociated blastomere cells were grown in zESC medium, which is composed of 70% LDF medium and 30% RTS34st-conditioned medium. The LDF medium contains 50% Leibowitz's L-15 (Invitrogen), 35% DMEM (Invitrogen), and 15% Ham's F-12 (Invitrogen), supplemented with 0.18 g/l sodium bicarbonate, 15 mM HEPES (Invitrogen), 1% L-Glutamine (Invitrogen), 10 μg/ml ciprofloxacin (Sigma-Aldrich), 100 μg/ml piperacillin (Sigma-Aldrich), 10 μg/ml amphotericin B (Sigma-Aldrich), 10 nM sodium selenite (Sigma-Aldrich), 1% N2 (Invitrogen), and 2% B27 (Invitrogen). The RTS34st conditioned medium was prepared by incubating fresh medium (Leibowitz's L-15 plus 15% FBS) on a confluent culture of RTS34st cells for 3 days.
(§2) Four 384-well plates were coated with 0.1% gelatin. Chemicals from the CHB library were diluted 150 times with zESC medium containing 1 ng/ml bFGF and were aliquoted 30 μl per well. Males and females of the myf5-GFP; mylz2-mCherry transgenic line were set up overnight and kept separated until morning when they were mixed for mate. Approximately 800 oblong-stage embryos were washed three times with E3 embryo water and were treated with pronase to remove chorions. Dechorionated embryos were washed with E3 embryo water three times and collected into a 50 ml falcon tube with 25 ml zESC medium containing 1 ng/ml bFGF. Embryos were disassociated by shaking approximately 20 times and were filtered through a 70 μm nylon mesh filter. The resulting single cells were diluted to 60 ml with zESC medium containing 1 ng/ml bFGF and aliquoted 30 μl per well into the four 384-well plates with pre-added chemicals. The cells were cultured in a 28-degree incubator without CO2. Cells were imaged by a Celigo cytometer (Cyntellect) under channels of GFP, mCherry, and transmitted light. The images were analyzed by the built-in software and confirmed eye.
To enable a higher throughput analysis of candidate modifiers of skeletal myogenesis, the embryo culture system was adapted to a semi-automated chemical screening platform. myf5-GFP; mylz2-mCherry embryos were collected from double transgenic parents and disassociated at the oblong stage. […] After one day, the cells were automatically imaged and analyzed using a Celigo cytometer for GFP, mCherry, and bright-field signals, and image analysis was confirmed by visual inspection (FIG. 2A).

[4] = tested on: zebrafish blastomere cells; assay: Sensitized chemical screen in zebrafish blastomere cell culture in the absence of bFGF; format: cell-based
Text: as §1, §2
The strong muscle promoting effect of bFGF made it difficult to identify enhancers of skeletal muscle development in our original system. Only one out of 2,400 chemicals was identified to promote muscle development. To sensitize the system for identifying enhancers of skeletal muscle development, we repeated the screen in the absence of bFGF. […] Among the six hits were three GSKβ inhibitor (kenpaullone, SB415286, and SB216763), two calpain inhibitors (E-64-D and MDL28170) and one cAMP activator forskolin.

Molecule: Cl.Oc1cc2c(c(Cl)c1O)CCNCC2c1ccccc1 (racemic) [(±)-6-Chloro-PB hydrochloride]
- myoD expression (zebrafish embryos): Level 1
- perturbation of muscle development in vivo (myoD riboprobe) (zebrafish embryos): verified to perturb muscle development in vivo

Molecule: CCCC[N+]1(C)[C@@H]2C[C@@H](OC(=O)[C@H](CO)c3ccccc3)C[C@H]1[C@@H]1O[C@@H]12.[Br-] (single isomer, unassigned; (-)) [(-)-Scopolamine, n-Butyl-, bromide]
- myoD expression (zebrafish embryos): Level 1

Molecule: CC1=C(/C=C/C(C)=C/C=C/C(C)=C/C(=O)O)C(C)(C)CCC1 [ATRA, all-trans retinoic acid]
- myoD expression (zebrafish embryos): Level 4
- perturbation of muscle development in vivo (myoD riboprobe) (zebrafish embryos): verified to perturb muscle development in vivo
- skeletal muscle development in vitro ([1]; zESC medium with bFGF, 100 nM ATRA, images 48 hours after plating): blocked skeletal muscle development; also recorded: blocks muscle development in vitro

Molecule: O=C1Nc2cc(Br)ccc2/C1=C1/Nc2ccccc2/C1=N\O [BIO, 6-Bromoindirubin-3′-oxime]
- toxicity compared with other GSK3β antagonists [2]: lower toxicity

Molecule: CCCNC(=O)[C@H]1O[C@@H]1C(=O)N[C@H](C(=O)N1CCC[C@H]1C(=O)OC)[C@@H](C)CC [CA-074-Me]
- change of myf5-GFP and mylz2-mCherry signals (hit category) [3]: only myf5-GFP expression

Molecule: CCOC(=O)[C@H]1O[C@@H]1C(=O)N[C@@H](CC(C)C)C(=O)NCCC(C)C [E-64-D]
- GFP and mCherry signals [4]: increase the GFP and mCherry signals

Molecule: C=C1C(=O)O[C@@H]2C[C@@H](C)[C@@H]3C=CC(=O)[C@@]3(C)[C@@H](O)[C@H]12 [Helenalin]
- myoD expression (zebrafish embryos): Toxic

Molecule: O=c1cc(N2CCOCC2)oc2c(-c3ccccc3)cccc12 [LY-294,002 hydrochloride]
- myoD expression (zebrafish embryos): Level 2

Molecule: CN(Cc1cnc2nc(N)nc(N)c2n1)c1ccc(C(=O)N[C@@H](CCC(=O)O)C(=O)O)cc1 [Methotrexate]
- myoD expression (zebrafish embryos): No change

Molecule: COCC(=O)O[C@]1(CCN(C)CCCc2nc3ccccc3[nH]2)CCc2cc(F)ccc2[C@@H]1C(C)C.Cl.Cl [Miberfradil dihydrochloride]
- myoD expression (zebrafish embryos): Level 2

Molecule: CO[C@H]1C[C@@H]2CC[C@@H](C)[C@@](O)(O2)C(=O)C(=O)N2CCCC[C@H]2C(=O)O[C@H]([C@H](C)C[C@@H]2CC[C@@H](O)[C@H](OC)C2)CC(=O)[C@H](C)/C=C(\C)[C@@H](O)[C@@H](OC)C(=O)[C@H](C)C[C@H](C)/C=C/C=C/C=C/1C [Rapamycin]
- myoD expression (zebrafish embryos): Level 2

Molecule: Cl.NCCNC(=O)c1ncsc1-c1cccc(F)c1 [Ro 41-1049 hydrochloride]
- change of myf5-GFP and mylz2-mCherry signals (hit category) [3]: decreased amount of both fluorescent colors
- myoD expression (zebrafish embryos): Level 4

Molecule: Cn1cc(C2=C(c3ccc(Cl)cc3Cl)C(=O)NC2=O)c2ccccc21 [SB216763]
- GFP and mCherry signals [4]: increase the GFP and mCherry signals

Molecule: O=C1NC(=O)C(c2ccccc2[N+](=O)[O-])=C1Nc1ccc(O)c(Cl)c1 [SB415286]
- change of myf5-GFP and mylz2-mCherry signals (hit category) [3]: increased expression of both markers
- GFP and mCherry signals [4]: increase the GFP and mCherry signals

Molecule: NC(=O)c1ccc(-c2nc(-c3ccccn3)c(-c3ccc4c(c3)OCO4)[nH]2)cc1 [SB-431542]
- myoD expression (zebrafish embryos): No change

Molecule: Cl.Cl.Cl.NCCCCNCCCN [Spermidine trihydrochloride]
- myoD expression (zebrafish embryos): Level 1

Molecule: Clc1cnc(Oc2ccc(Oc3ncc(Cl)cc3Cl)cc2)c(Cl)c1 [TCPOBOP]
- change of myf5-GFP and mylz2-mCherry signals (hit category) [3]: only myf5-GFP expression

Molecule: N#C/C(=C\c1c[nH]c2ccccc12)C(=O)c1ccc(O)c(O)c1 [Tyrphosfin AG 808]
- myoD expression (zebrafish embryos): Level 1

Molecule: C[C@@H](NC(=O)/C(C#N)=C/c1ccc(O)c(O)c1)c1ccccc1 [Tyrphostin AG 527]
- myoD expression (zebrafish embryos): No Change; also recorded: Level 1

Molecule: CC(C)(C)c1cc(/C=C(\C#N)C(N)=S)cc(C(C)(C)C)c1O [Tyrphostin AG 879]
- change of myf5-GFP and mylz2-mCherry signals (hit category) [3]: decreased amount of both fluorescent colors
- myoD expression (zebrafish embryos): Toxic

Molecule: O=C1Cc2c([nH]c3ccc(Br)cc23)-c2ccccc2N1 [kenpaullone, 9-bromopaullone]
- GFP and mCherry signals [4]: increase the GFP and mCherry signals

Molecule: MDL28170
- GFP and mCherry signals [4]: increase the GFP and mCherry signals

Molecule: basic fibroblast growth factor [bFGF]
- GFP and mCherry expression of cultured blastomere cells ([1]; bFGF added to zESC medium): majority of cells became GFP and mCherry double positive
- expression of other myogenic genes (myoD, mrf4, myog), quantitative RT-PCR ([1]; cultured with bFGF, harvested at 24 hours): highly expressed
